Results as given in publication PMC6072516, “Rational design and synthesis of novel phenylsulfonyl-benzamides as anti-prostate cancer agents” (MedChemComm, 2017).
Read-outs that look alike come from different tables or passages of the source.

Tests used:
[1] = test system: four human prostate cancer cell lines: LNCaP, 22Rv1, VCaP, DU145; assay: Antiproliferative assay, overall effect in the four cell lines (geometric mean); assay type: cell-based; details: for IC50: geometric mean of the four cell lines, read-out: Absolute IC50 Geo. mean
Procedure: PCR based DNA-fingerprinting methodology.
density of 4.000 – 30.000 cells/well.
test compound were added.
concentrations in triplicate.
After an incubation period of
control/background ratio >3.0
The absolute IC50 value reflects the
The calculation was done by a 4
for calculation of the geometric mean value.
of 0.05% Trypsin/EDTA. […] When all cells

[2] = Cell Titer Blue viability (cytotoxicity) assay; assay type: cell-based, human; details: human
Procedure: (§1) A Cell Titer Blue viability assay was performed in the human embryonic kidney cell line HEK293, in order to evaluate the cytotoxicity profile of the newly prepared compounds. […] .
(§2) Fig. 5 HEK293 human embryonic kidney cells were treated at 70% confluence with negative controls (0.1% DMSO, BICAL at 10 μM), positive control (10% DMSO) and compounds at 10 μM concentration for 24 hours. […] Fluorescence was measured at 560/590 nm using a CLARIOstar luminescence plate reader (BMG Labtech). N = 4, n = 6 for controls, n = 3 for drugs. […]
(§3) for calculation of the geometric mean value. […]
(§4) of 0.05% Trypsin/EDTA. […] When all cells […]
(§5) chamber counting grid (Immune Systems). […]
(§6) confluence for assay the next day. […]
(§7) drugs at 10 µM concentration.
(§8) 100 µl media. […] Fluorescence was measured
(§9) USA). […] The Dunnett’s multiple […]
(§10) comparison test was used to compare each drug and the positive control to the negative control […]
(§11) Compound R1 X R2 Cell Viability Antiproliferative
(§12) Mean (%)* SEM** Abs. IC50
(§13) Table S2. Cell Viability assay at 10 µM. * Mean % of cell viability relative to control; ** Errors are calculated as standard error of the mean; ***Geometric mean.

[3] = test system: HEK293 human embryonic kidney cells; assay: Cell Titer Blue viability (cytotoxicity) assay; assay type: cell-based
Procedure: as §1, §2, §3, §4, §5, §6, §7, §8, §9, §10, §11, §12, §13

[4] = test system: VCaP; assay: 2D monolayer antiproliferative assay (propidium iodide), VCaP; details: Homo sapiens, 96 h, read-out: Absolute IC50 VCaP
Procedure: (§14) All new compounds along with the two standards were tested for their ability to inhibit survival and/or cell proliferation in four human prostate cancer cell lines: LNCaP, 22Rv1, VCaP, androgen-sensitive cell lines, and DU145, a non hormone-sensitive cell line.
(§15) Compound Handling: Stock solutions for all inhibitors were prepared in DMSO at a
(§16) were well soluble at this concentration in DMSO and precipitation was not observed for any
(§17) compound dissolved in 100% DMSO. Aliquots of the stock solution were thawed on the day
(§18) of use and stored at room temperature prior to and during treatment. The subsequent dilutions
(§19) were done with complete RPMI1640 cell culture medium. The DMSO stock solution was first
(§20) Starting with this solution, serial dilutions in
(§21) half-log steps with cell culture medium were done using an intermediate dilution plate. Finally,
(§22) 10 µl taken from the intermediate dilution plate were transferred to 140 µl / well of the cell
(§23) culture plate. Thus, at the highest test concentration the DMSO stock was diluted 1:330,
(§24) corresponding to a maximum DMSO concentration of 0.3 % v/v in the assay. Solubility of the
(§25) diluted compounds in the assay was monitored under the microscope by visual inspection of
(§26) the treated cell lines after the 4 days incubation. Precipitation as observed by crystalline
(§27) Tumor Cell lines: The cell line panel used for assessing the novel inhibitors comprised four
(§28) cell lines derived from human prostate cancers.
(§29) 6-7 Cell lines were routinely passaged once or twice weekly and maintained in culture for up to 20 passages. All cells were grown at 37°C in
(§30) glutamine, #FG1385, Biochrom, Berlin, Germany) supplemented with 10% (v/v) fetal calf serum (Sigma, Taufkirchen, Germany) and 0.1 mg/mL gentamicin (Life Technologies,
(§31) Cell Proliferation Assay: A modified propidium iodide (PI) based monolayer assay was used
(§32) exponential phase cultures, counted and plated in 96-well flat-bottom micro titer plates at a cell density of 4.000 – 30.000 cells/well. After a 24 h recovery period to allow the cells to resume exponential growth, 10 µl of culture medium (six control wells/plate) or culture medium with test compound were added. The compounds were applied in half-log increments at 10 concentrations in triplicate. After a total treatment period of 96 h, cells were washed with 200 µl PBS to remove dead cells and debris. Then, 200 µl of a solution containing 7 µg/ml propidium iodide (PI) and 0.1% (v/v) Triton X-100 was added. After an incubation period of 1-2 hours at room temperature, fluorescence (FU) was measured using the EnSpire Multimode Plate Reader (excitation λ= 530 nm, emission λ= 620 nm) to quantify the amount of attached
(§33) For calculation of mean IC50 values the geometric mean was used.
(§34) Data Evaluation: An assay was considered fully evaluable if the following quality control
(§35) - Z’-factor calculated within the assay plate ≥0.59
(§36) - fluorescence intensity of >500 U from the untreated control wells, equivalent to a
(§37) - coefficient of variation in the growth control wells ≤30
(§38) Compound effects were expressed in terms of the percentage of the fluorescence signal, obtained by comparison of the mean signal in the treated wells with the mean signal of the untreated controls (expressed by the test-versus-control value, T/C-value [%]):

[5] = test system: 22Rv1; assay: 2D monolayer antiproliferative assay (propidium iodide), 22Rv1; details: Homo sapiens, 22Rv1, 96 h, read-out: Absolute IC50 22Rv1
Procedure: as §14, §15, §16, §17, §18, §19, §20, §21, §22, §23, §24, §25, §26, §27, §28, §29, §30, §31, §32, §33, §34, §35, §36, §37, §38

[6] = test system: LNCaP; assay: 2D monolayer antiproliferative assay (propidium iodide), LNCaP; details: for IC50: Homo sapiens, LNCaP, 96 h, read-out: Absolute IC50 LNCaP
Procedure: as §14, §15, §16, §17, §18, §19, §20, §21, §22, §23, §24, §25, §26, §27, §28, §29, §30, §31, §32, §33, §34, §35, §36, §37, §38

[7] = test system: DU-145; assay: 2D monolayer antiproliferative assay (propidium iodide), DU-145; details: Homo sapiens, DU-145, 96 h, read-out: Absolute IC50 DU-145
Procedure: as §14, §15, §16, §17, §18, §19, §20, §21, §22, §23, §24, §25, §26, §27, §28, §29, §30, §31, §32, §33, §34, §35, §36, §37, §38

[8] = 10 µM, 24 h, HEK293, mean % of cell viability relative to control, read-out: Cell Viability Mean (%)

IC50 ([1]; Homo sapiens) | IC50 [4] | IC50 [5] | IC50 [6] | IC50 [7] | IC50 [1] | Absolute IC50 LNCaP ([6]; 96 h treatment, mean of triplicate, SD ±10%) | increase of IC50 values, sulfone vs thioether ([1]; 11c vs 13c) | Structure (SMILES) | viability at 24 h, 10 µM [2] | reduction of cell viability / cells killed ([3]; human, 24 h, 10 μM) | Cell Viability Mean (%) ([3]; 10 µM) | viability at 24 h, 10 µM [2, 8] | reduction of overall effect in the four cell lines, ortho vs meta CF3 ([1]; 11h vs 11i) | viability at 24 h, 10 µM ([2]; HEK293 cells, 10 µM, 24 h, HEK293, mean % of cell viability relative to control, read-out: Cell Viability Mean (%))
5.37 µM | 5.35 µM | 5.78 µM | 2.49 µM | 10.8 µM | – | – | – | O=C(Nc1ccc(S(F)(F)(F)(F)F)cc1)c1ccc(S(=O)(=O)c2ccc(O)cc2)cc1 [Compound 13e, 4-((4-Hydroxyphenyl)sulfonyl)-N-(4-(pentafluorothio)phenyl)benzamide] | 38.4% | more than 50% | – | – | – | –
8.09 µM | 9.68 µM | 6.23 µM | 8.3 µM | 8.55 µM | – | – | – | O=C(Nc1ccc(C(F)(F)F)cc1)c1ccc(Sc2ccc(O)cc2)cc1 [Compound 11g] | 66.3% | – | – | – | – | –
12.1 µM | 10.9 µM | 10.3 µM | 11.4 µM | 16.6 µM | – | – | – | O=C(Nc1cc(C(F)(F)F)ccc1C(F)(F)F)c1ccc(Sc2ccc(O)cc2)cc1 [Compound 11d] | 53.7% | – | – | – | – | –
– | 97.6 µM | > 100 µM | 62 µM | > 100 µM | – | – | – | O=C(Nc1ccccc1C(F)(F)F)c1ccc([S+]([O-])c2ccc(O)cc2)cc1 (stereo not shown) [Compound 14i] | 104% | – | – | – | – | –
– | 10.6 µM | 5.73 µM | 9.66 µM | 5.95 µM | – | – | – | O=C(Nc1cccc(C(F)(F)F)c1)c1ccc(Sc2ccc(O)cc2)cc1 [Compound 11h] | 85.6% | – | – | – | – | –
< 16 µM | 30.1 µM | 15.1 µM | 10.2 µM | 17.7 µM | 16.8 µM | – | – | O=C(Nc1cccc(C(F)(F)F)c1)c1ccc(S(=O)(=O)c2ccc(O)cc2)cc1 [Compound 13h] | 87.6% | – | – | – | – | –
3.75 µM | 3.53 µM | 5.6 µM | 0.9 µM | 11 µM | – | sub μM | – | O=C(Nc1ccc(S(F)(F)(F)(F)F)cc1)c1ccc([S+]([O-])c2ccc(O)cc2)cc1 (stereo not shown) [Compound 14e, 4-((4-Hydroxyphenyl)sulfinyl)-N-(4-(pentafluorothio)phenyl)benzamide] | 59.7% | – | – | – | – | –
– | – | – | – | – | – | – | – | C[S+](C)[O-] [10% DMSO] | – | – | 1.45% | – | – | –
25.2 µM | 32.3 µM | 30.9 µM | 11.4 µM | 35.7 µM | – | – | – | O=C(Nc1ccccc1C(F)(F)F)c1ccc(Sc2ccc(O)cc2)cc1 [Compound 11i] | 111% | – | – | – | 3 fold | –
8.5 µM | 9.72 µM | 6.44 µM | 8.41 µM | 9.92 µM | – | – | up to 2 fold | O=C(Nc1cc(C(F)(F)F)cc(C(F)(F)F)c1)c1ccc(S(=O)(=O)c2ccc(O)cc2)cc1 [Compound 13c] | 65.7% | – | – | – | – | –
3.28 µM | 2.59 µM | 3.35 µM | 2.39 µM | 5.6 µM | – | – | – | O=C(Nc1cc(C(F)(F)F)cc(C(F)(F)F)c1)c1ccc(Sc2ccc(O)cc2)cc1 [Compound 11c] | 64.2% | – | – | – | – | –
4.01 µM | 6.1 µM | 2.94 µM | 3.32 µM | 4.35 µM | – | – | – | O=C(Nc1cccc(S(F)(F)(F)(F)F)c1)c1ccc(Sc2ccc(O)cc2)cc1 [Compound 11f] | 60.5% | – | – | – | – | –
19.7 µM | 27.2 µM | 16.8 µM | 10.8 µM | 30.7 µM | – | – | – | O=C(Nc1ccc(C(F)(F)F)cc1)c1ccc(S(=O)(=O)c2ccc(O)cc2)cc1 [Compound 13g] | 61.8% | – | – | – | – | –
6.18 µM | 10.8 µM | 5.66 µM | 3.98 µM | 6.01 µM | – | – | – | O=C(Nc1cccc(S(F)(F)(F)(F)F)c1)c1ccc(S(=O)(=O)c2ccc(O)cc2)cc1 [Compound 13f, N-(3-(Pentafluorosulfanyl)phenyl)-4-((4-hydroxyphenyl)sulfonyl)benzamide] | 76.2% | – | – | – | – | –
5.43 µM | 7.15 µM | 3.71 µM | 4.86 µM | 6.76 µM | – | – | – | O=C(Nc1ccc(S(F)(F)(F)(F)F)cc1)c1ccc(Sc2ccc(O)cc2)cc1 [Compound 11e] | 49.5% | – | – | – | – | –
49.1 µM | 65.2 µM | 49.3 µM | 39.3 µM | 45.9 µM | – | – | – | O=C(Nc1ccccc1C(F)(F)F)c1ccc(S(=O)(=O)c2ccc(O)cc2)cc1 [Compound 13i] | 129% | – | – | – | – | –
50 µM | – | – | – | – | 52.4 µM | – | – | C[C@](O)(CS(=O)(=O)c1ccc(F)cc1)C(=O)Nc1ccc(C#N)c(C(F)(F)F)c1 [Bicalutamide, bicalutamide, reference compound] | – | – | – | – | – | 94.6%
< 16 µM | 28.2 µM | 6.96 µM | 12.5 µM | 9.89 µM | 12.5 µM | – | – | O=C(Nc1cccc(C(F)(F)F)c1)c1ccc(Sc2cccc(C(F)(F)F)c2)cc1 [Compound 12h] | 112% | – | – | – | – | –
– | – | – | – | – | – | – | – | O=C(Nc1cccc(C(F)(F)F)c1)c1ccc(S(=O)(=O)c2cccc(C(F)(F)F)c2)cc1 [Compound 15h] | 83.9% | – | – | – | – | –
25.2 µM | 30.5 µM | 20.7 µM | 23.2 µM | 27.8 µM | – | – | – | O=C(Nc1cc(C(F)(F)F)ccc1C(F)(F)F)c1ccc(S(=O)(=O)c2ccc(O)cc2)cc1 [Compound 13d] | – | – | – | – | – | –

Structure (SMILES) | IC50 ([1]; Homo sapiens) | IC50 [4] | IC50 [5] | IC50 [6] | IC50 [7] | IC50 [1] | Absolute IC50 LNCaP ([6]; 96 h treatment, mean of triplicate, SD ±10%) | increase of IC50 values, sulfone vs thioether ([1]; 11c vs 13c) | viability at 24 h, 10 µM [2] | reduction of cell viability / cells killed ([3]; human, 24 h, 10 μM) | Cell Viability Mean (%) ([3]; 10 µM) | viability at 24 h, 10 µM [2, 8] | reduction of overall effect in the four cell lines, ortho vs meta CF3 ([1]; 11h vs 11i) | viability at 24 h, 10 µM ([2]; HEK293 cells, 10 µM, 24 h, HEK293, mean % of cell viability relative to control, read-out: Cell Viability Mean (%))
O=C(Nc1ccc([N+](=O)[O-])c(C(F)(F)F)c1)c1ccc(Sc2ccc(O)cc2)cc1 [Compound 11b] | 4.68 µM | 5.19 µM | 4.5 µM | 3.58 µM | 5.74 µM | – | – | – | 65.4% | – | – | – | – | –
N#Cc1ccc(NC(=O)c2ccc(S(=O)(=O)c3ccc(O)cc3)cc2)cc1C(F)(F)F [Compound 13a] | 8.84 µM | 8.56 µM | 12.1 µM | 4.68 µM | 12.6 µM | – | – | – | – | – | – | 73% | – | –
N#Cc1ccc(NC(=O)c2ccc(Sc3cccc(C(F)(F)F)c3)cc2)cc1C(F)(F)F [Compound 12a] | 5.5 µM | 5.66 µM | 3.57 µM | 8.87 µM | 5.12 µM | – | – | – | – | – | – | 60% | – | –
O=C(Nc1ccc([N+](=O)[O-])c(C(F)(F)F)c1)c1ccc(S(=O)(=O)c2ccc(O)cc2)cc1 [Compound 13b] | – | 8.57 µM | 7.3 µM | 4.96 µM | 8.85 µM | – | – | – | 82.3% | – | – | – | – | –
N#Cc1ccc(NC(=O)c2ccc(Sc3ccc(O)cc3)cc2)cc1C(F)(F)F [Compound 11a] | 7.08 µM | 9.55 µM | 6.24 µM | 5.43 µM | 7.77 µM | – | – | – | – | – | – | 65.7% | – | –
N#Cc1ccc(NC(=O)c2ccc(S(=O)(=O)c3cccc(C(F)(F)F)c3)cc2)cc1C(F)(F)F [Compound 15a] | 4.71 µM | 7.87 µM | 3.57 µM | 3.73 µM | 4.7 µM | – | – | – | – | – | – | 79% | – | –
